Structures are written as SMILES. Where a SMILES comes first, the peptide text is derived from it. [ ]: non-standard residue; d: D form. The star is where a group is joined. Met(O2) = CS(=O)(=O)CC[C@H](N)C(=O)O; Ala(cPr) = N[C@@H](CC1CC1)C(=O)O; Cbz = O=C(OCc1ccccc1)*

One data set deals with SARS-CoV-2. The data set can be described thus: Anti-viral potency: inhibition of in vitro replication of SARS-CoV-2 in A549 cells. Format: cell-based. To be noted: for EC50: Severe acute respiratory syndrome coronavirus 2, A549 cells, 10-point titration from 50 μM, triplicate.
The target in data set [1] is T1, SARS-CoV-2 Mpro (Severe acute respiratory syndrome coronavirus 2, UniProt P0DTD1). Format: binding. To be noted: 40 μM 15N-labeled deuterated Mpro, 20 or 40 μM compound, SPR buffer.
Data set [2] addresses T1, SARS-CoV-2 Mpro. Format: binding. Conditions: 300 μM 13C-labeled compound, 100 μM Mpro, SPR buffer; for covalent adduct formation with Cys145 seen by 13C NMR: up to 3 h (compound 1) or 6 h (compound 5).
Data set [3] is classed as physicochemical. Conditions: 500 μM, monitored for 10 h at 16-min intervals.
Data set [4] has as its target T1, SARS-CoV-2 Mpro. Kind of data set: Covalent bond (adduct) formation kinetics by IR-MALDESI intact protein MS. Format: binding. Conditions: for kobs (95 % CI) for adduct formation / kobs (95 % CI) Quenched, SPR: SPR buffer; for kobs (95 % CI) for adduct formation: Figure 2; for kobs (95 % CI) Quenched, SPR / kobs (95 % CI) Quenched, Citrate: quenched with 200 μM compound 9, 10 μM compound and Mpro, Figure S5; for kobs (95 % CI) Quenched, Citrate: citrate buffer, only estimated for lack of early timepoints.

In data set [5] the target is T1, SARS-CoV-2 Mpro. The data set can be described thus: biochemical. Format: biochemical. Conditions: for IC50 / Ki: Kinetics N = 2 (95% CI); for IC50: 4-parameter fit of the same data; for Ki: Morrison fit, 1 nM Mpro, 800 mM citrate buffer, 15 min preincubation.
Where [6] appears, read: first determination, 4-parameter IC50 fit.
Setting [7] is: second determination, 4-parameter IC50 fit.

`COc1cccc2[nH]c(C(=O)N[C@@H](CC3CC3)C(=O)N[C@H](C=O)C[C@@H]3CCNC3=O)cc12` [Compound 1, N-((S)-3-cyclopropyl-1-oxo-1-(((S)-1-oxo-3-((S)-2-oxopyrrolidin-3-yl)propan-2-yl)amino)propan-2-yl)-4-methoxy-1H-indole-2-carboxamide]: the EC50 (usually the concentration giving half of the maximal effect) in the data set on SARS-CoV-2 turned out to be 6.2 µM. In addition, the “exchange regime of binding on the NMR timescale” value on SARS-CoV-2 Mpro [1] was “slow exchange regime”. In addition, the “non-covalently bound form seen by 13C NMR” value on SARS-CoV-2 Mpro [2] (extended incubation) is “stably bound to Mpro non-covalently”. Moreover, on SARS-CoV-2 Mpro [2], the “covalent adduct formation with Cys145 seen by 13C NMR” value is on record as “thiohemiacetal formation”. In addition, in data set [3], the “epimerization at P1: αH resonance in D2O SPR buffer” value is given as “no change in intensity”. The “kobs (95 % CI) for adduct formation” value is recorded as 0.11 (0.04919 to 0.2232) at SARS-CoV-2 Mpro [4] (Ratio Cmpd:Mpro 1:1), 0.34 (0.1598 to 0.8874) at SARS-CoV-2 Mpro [4] (Ratio Cmpd:Mpro 2:1) and 2.0 (1.597 to 2.492) at SARS-CoV-2 Mpro [4] (Ratio Cmpd:Mpro 5:1). The “kobs (95 % CI) Quenched, SPR” value on SARS-CoV-2 Mpro [4] is 0.13 Min -1. For the same compound, the “kobs (95 % CI) Quenched, Citrate” value on SARS-CoV-2 Mpro [4] is on record as 0.31 Min -1. The Hill slope – broadly, the slope factor of the fitted curve – was “greater than 1” at SARS-CoV-2 Mpro [5] (4-parameter IC50 refit), 3.1 on SARS-CoV-2 Mpro [5] (setting [6]) and 2.0 at SARS-CoV-2 Mpro [5] (setting [7]).

`O=C[C@H](C[C@@H]1CCNC1=O)NC(=O)[C@H](CC1CC1)NC(=O)OCc1ccccc1` [Compound 2, benzyl ((S)-3-cyclopropyl-1-oxo-1-(((S)-1-oxo-3-((S)-2-oxopyrrolidin-3-yl)propan-2-yl)amino)propan-2-yl)carbamate] displayed an EC50 with SARS-CoV-2 of 3.3 µM. Also, the “kobs (95 % CI) Quenched, SPR” value at SARS-CoV-2 Mpro [4] was 0.49 Min -1. On SARS-CoV-2 Mpro [4], the “kobs (95 % CI) Quenched, Citrate” value was 0.85 Min -1. Moreover, the entries for the “Hill slope” value on SARS-CoV-2 Mpro [5] (4-parameter IC50 refit), at SARS-CoV-2 Mpro [5] (setting [6]) and at SARS-CoV-2 Mpro [5] (setting [7]) were “greater than 1”, 2.7 and 2.5, respectively.

As to `COc1cccc2[nH]c(C(=O)N[C@@H](CC3CC3)C(=O)N[C@H](C=O)CCS(C)(=O)=O)cc12` [Compound 3, N-((S)-3-cyclopropyl-1-(((S)-4-(methylsulfonyl)-1-oxobutan-2-yl)amino)-1-oxopropan-2-yl)-4-methoxy-1H-indole-2-carboxamide], the “kobs (95 % CI) Quenched, SPR” value at SARS-CoV-2 Mpro [4] was 0.18 Min -1. Further, the “kobs (95 % CI) Quenched, Citrate” value on SARS-CoV-2 Mpro [4] is on record as 0.30 Min -1. Also, the “Hill slope” value on SARS-CoV-2 Mpro [5] (4-parameter IC50 refit), at SARS-CoV-2 Mpro [5] (setting [6]) and on SARS-CoV-2 Mpro [5] (setting [7]) was 1.5 in each case.

The compound `CS(=O)(=O)CC[C@@H](C=O)NC(=O)[C@H](CC1CC1)NC(=O)OCc1ccccc1` [Compound 4, benzyl ((S)-3-cyclopropyl-1-(((S)-4-(methylsulfonyl)-1-oxobutan-2-yl)amino)-1-oxopropan-2-yl)carbamate] (Cbz-[Ala(cPr)]-[Met(O2)]-aldehyde) came in with a concentration giving a half-maximal response (EC50) with SARS-CoV-2 of 22 µM. Further, at SARS-CoV-2 Mpro [4], the “kobs (95 % CI) Quenched, SPR” value was found to be 0.29 Min -1 and the “kobs (95 % CI) Quenched, Citrate” value is 0.35 Min -1. For the same compound, on SARS-CoV-2 Mpro [5] (setting [6]), the Hill slope was determined as 1.0. On SARS-CoV-2 Mpro [5] (setting [7]), this compound yielded a Hill slope of 1.0.

Turning to `COc1cccc2[nH]c(C(=O)N[C@@H](CC3CC3)C(=O)N[C@H](C#N)C[C@@H]3CCNC3=O)cc12` [Compound 5, N-((S)-1-(((S)-1-cyano-2-((S)-2-oxopyrrolidin-3-yl)ethyl)amino)-3-cyclopropyl-1-oxopropan-2-yl)-4-methoxy-1H-indole-2-carboxamide], the “decrease of cellular EC50 versus the Ki determined in citrate buffer” value in the data set on SARS-CoV-2 (EC50 in A549 cells versus Ki) is 760 fold. Further, in the data set on SARS-CoV-2, the half-maximal effective concentration (EC50) is 3.2 µM. In addition, the “exchange regime of binding on the NMR timescale” value at SARS-CoV-2 Mpro [1] is listed as “fast exchange regime”. For the same compound, on SARS-CoV-2 Mpro [2], the “covalent adduct formation with Cys145 seen by 13C NMR” value was “no new peaks emerged to suggest thioimidate formation”. The “kobs (95 % CI) for adduct formation” value at SARS-CoV-2 Mpro [4] (Ratio Cmpd:Mpro 1:1) is recorded as 0.33 (0.2393 to 0.4596); on SARS-CoV-2 Mpro [4] (Ratio Cmpd:Mpro 2:1), 0.40 (0.2513 to 0.6949); at SARS-CoV-2 Mpro [4] (Ratio Cmpd:Mpro 5:1), 1.6 (0.7658 to 3.045). The “kobs (95 % CI) Quenched, SPR” value at SARS-CoV-2 Mpro [4] is listed as 1.2 Min -1. The “kobs (95 % CI) Quenched, Citrate” value at SARS-CoV-2 Mpro [4] is on record as 0.47 Min -1. In addition, the results for the Hill slope at SARS-CoV-2 Mpro [5] (setting [6]) and on SARS-CoV-2 Mpro [5] (setting [7]) were 1.0 and 1, respectively.

Compound `N#C[C@H](C[C@@H]1CCNC1=O)NC(=O)[C@H](CC1CC1)NC(=O)OCc1ccccc1` [Compound 6, benzyl ((S)-1-(((S)-1-cyano-2-((S)-2-oxopyrrolidin-3-yl)ethyl)amino)-3-cyclopropyl-1-oxopropan-2-yl)carbamate] yielded an EC50 with SARS-CoV-2 of 13 µM. Moreover, on SARS-CoV-2 Mpro [4], the “kobs (95 % CI) Quenched, SPR” value stood at 0.08 Min -1 and the “kobs (95 % CI) Quenched, Citrate” value was 0.34 Min -1. The same compound gave a Hill slope at SARS-CoV-2 Mpro [5] (setting [6]) of 1.1. Also, the Hill slope at SARS-CoV-2 Mpro [5] (setting [7]) came out at 1.0.

`COc1cccc2[nH]c(C(=O)N[C@@H](CC3CC3)C(=O)N[C@H](C#N)CCS(C)(=O)=O)cc12` [Compound 7, N-((S)-1-(((S)-1-cyano-3-(methylsulfonyl)propyl)amino)-3-cyclopropyl-1-oxopropan-2-yl)-4-methoxy-1H-indole-2-carboxamide] yielded an EC50 in the data set on SARS-CoV-2 greater than 50 µM. At SARS-CoV-2 Mpro [5] (setting [6]), this compound yielded a Hill slope of 0.6.

`CS(=O)(=O)CC[C@@H](C#N)NC(=O)[C@H](CC1CC1)NC(=O)OCc1ccccc1` [Compound 8, benzyl ((S)-1-(((S)-1-cyano-3-(methylsulfonyl)propyl)amino)-3-cyclopropyl-1-oxopropan-2-yl)carbamate]: the IC50 at SARS-CoV-2 Mpro [5] (first determination) and against SARS-CoV-2 Mpro [5] (second determination) was greater than 12.5 µM in each case. The Ki on SARS-CoV-2 Mpro [5] (first determination) and at SARS-CoV-2 Mpro [5] (second determination) was greater than 12.5 µM in each case.

(Values after publication PMC12246642 (iScience, 2025).)
